In patent publication US20250129080A1, “COMPOSITIONS AND METHODS OF USING THE SAME FOR TREATMENT OF NEURODEGENERATIVE AND MITOCHONDRIAL DISEASE” (Mitokinin, Inc., priority 2021, published 2025):

What was measured:
[1] = test system: HeLa cells expressing mt-Keima and YFP-Parkin (HeLa MKYP); assay: Human mt-Keima mitophagy assay; assay type: cell-based; conditions: 16 hrs with compound, then FCCP/oligomycin for 6 hours, FACS
Procedure: Briefly, HeLa cells expressing mt-Keima and YFP-Parkin (HeLa MKYP) were plated at 10,000 cells/well in 96 well plates along with compounds at various concentrations. Following 16 hrs of incubation, cells were treated with […] FCCP/oligomycin for 6 hours, then analyzed via FACS for the presence of mitochondria in lysosomes (as determined by an emissions spectrum shift from the pH-sensitive mt-Keima tag).

SKOV3 cells = assay: In vitro mitosafety (glucose/galactose) assay; assay type: cell-based; conditions: highest mito-safe dose (gal/glc >0.80, IC20, SKOV3 cells, 20 hours) divided by mt-Keima EC50
Procedure: Briefly, SKOV3 cells (ATCC HTB-77) were plated in DMEM (Corning 10-013-CV) medium containing 25 mM glucose or DMEM with no glucose (Gibco 11966-025) supplemented with 10 mMV galactose at 9,000 cells/well in 96 well plates (Corning costar 3610). 24 hrs later, compounds, in DMSO, were added at various concentrations to a final 0.1% DMSO for all wells. […] After a 15 minute incubation cellular ATP levels were read out using a Promega GloMax® DiscoverMicroplate Reader.
The ratio of relative CellTiter-Glo values from cells grown in galactose to cells grown in glucose was determined (gal/glc ratio). The gal/glc ratio vs concentration is then graphed, and non-linear regression is used to find the highest concentration of MTK compound at which gal/glc >0.80 (the “highest mito-safe dose”, or IC20).

SMILES	EC50 ([1]; Homo sapiens, HeLa)	Mito-Safety Index (highest safe dose/EC50) (SKOV3 cells)	EC50 [1]
FC(F)OC1CN([C@H]2COc3ccccc3[C@@H]2Nc2ncnc3[nH]c(C4CC4)cc23)C1 (relative stereo) [EP-0041832, 6-Cyclopropyl-N-[Trans-3-[3-(Difluoromethoxy)Azetidin-1-Yl]Chroman-4-Yl]-7H-Pyrrolo[2,3-D]Pyrimidin-4-Amine]	346 nM	72.23	
FC(F)(F)C1CN([C@H]2COc3ccccc3[C@@H]2Nc2ncnc3[nH]c(C4CC4)cc23)CCO1 (single isomer, unassigned) [EP-0042928]	170 nM	42.17	
c1ccc2c(c1)OC[C@H](N1CCC3(CCCO3)C1)[C@H]2Nc1ncnc2[nH]c(C3CC3)cc12 (single isomer, unassigned) [EP-0042934]		55.78	35 nM
c1ccc2c(c1)OC[C@H](N1CCC3(CCCO3)C1)[C@H]2Nc1ncnc2[nH]c(C3CC3)cc12 (single isomer, unassigned) [EP-0042935]		211.76	
CC1(C#N)CCN([C@H]2COc3ccccc3[C@@H]2Nc2ncnc3[nH]c(C(F)(F)F)cc23)C1 (single isomer, unassigned) [EP-0043816]	110 nM	75.4	
OC1([C@H]2COc3ccccc3[C@@H]2Nc2ncnc3[nH]c(C4CC4)cc23)CCOCC1 [EP-0042202, 4-[(3R,4R)-4-[(6-Cyclopropyl-7H-Pyrrolo[2,3-D]Pyrimidin-4-Yl)Amino]Chroman-3-Yl]Tetrahydropyran-4-Ol]	215 nM	116.5	
OC1([C@H]2COc3ccccc3[C@@H]2Nc2ncnc3[nH]c(C(F)(F)F)cc23)CCOCC1 [EP-0042356, 4-[(3R,4R)-4-[[6-(Trifluoromethyl)-7H-Pyrrolo[2,3-D]Pyrimidin-4-Yl]Amino]Chroman-3-Yl]Tetrahydropyran-4-Ol]	218 nM	114.63	
F[C@@H]1CCN([C@H]2COc3ccccc3[C@@H]2Nc2ncnc3[nH]c(C4CC4)cc23)C1 [EP-0042534, 6-Cyclopropyl-N-((3R,4S)-3-((R)-3-Fluoropyrrolidin-1-Yl)Chroman-4-Yl)-7H-Pyrrolo[2,3-D]Pyrimidin-4-Amine]	349 nM	71.21	
c1ccc2c(c1)OC[C@H](N1CCOC3(CC3)C1)[C@H]2Nc1ncnc2[nH]c(C3CC3)cc12 [EP-0042535, N-((3R,4S)-3-(4-Oxa-7-Azaspiro[2.5]Octan-7-Yl)Chroman-4-Yl)-6-Cyclopropyl-7H-Pyrrolo[2,3-D]Pyrimidin-4-Amine]	244 nM	102.55	
F[C@H]1CCN([C@H]2COc3ccccc3[C@@H]2Nc2ncnc3[nH]c(C4CC4)cc23)C1 [EP-0042536, 6-Cyclopropyl-N-((3R,4S)-3-((S)-3-Fluoropyrrolidin-1-Yl)Chroman-4-Yl)-7H-Pyrrolo[2,3-D]Pyrimidin-4-Amine]	154 nM	89.78	
CO[C@H]1CCCN([C@H]2COc3ccccc3[C@@H]2Nc2ncnc3[nH]c(C4CC4)cc23)C1 [EP-0042537, 6-Cyclopropyl-N-((3R,4S)-3-((S)-3-Methoxypiperidin-1-Yl)Chroman-4-Yl)-7H-Pyrrolo[2,3-D]Pyrimidin-4-Amine]	268 nM	37.03	
c1ccc2c(c1)OC[C@H](N1CCCC1)[C@H]2Nc1ncnc2[nH]c(C3CC3)cc12 [EP-0042659, 6-Cyclopropyl-N-((3R,4S)-3-(Pyrrolidin-1-Yl)Chroman-4-Yl)-7H-Pyrrolo[2,3-D]Pyrimidin-4-Amine]	251 nM	54.54	
FC1(F)CCN([C@H]2COc3ccccc3[C@@H]2Nc2ncnc3[nH]c(C4CC4)cc23)C1 [EP-0042660, 6-Cyclopropyl-N-((3R,4S)-3-(3,3-Difluoropyrrolidin-1-Yl)Chroman-4-Yl)-7H-Pyrrolo[2,3-D]Pyrimidin-4-Amine]	139 nM	179.63	
N#C[C@H]1CCN([C@H]2COc3ccccc3[C@@H]2Nc2ncnc3[nH]c(C4CC4)cc23)C1 [EP-0042930]	38 nM	105.8	
FC(F)(F)c1cc2c(N[C@H]3c4ccccc4OC[C@@H]3N3CCOC4(CC4)C3)ncnc2[nH]1 [EP-0042970, N-((3R,4S)-3-(4-Oxa-7-Azaspiro[2.5]Octan-7-Yl)Chroman-4-Yl)-6-(Trifluoromethyl)-7H-Pyrrolo[2,3-D]Pyrimidin-4-Amine]	404 nM	61.94	
F[C@H]1CCN([C@H]2COc3ccccc3[C@@H]2Nc2ncnc3[nH]c(C(F)(F)F)cc23)C1 [EP-0042972, N-((3R,4S)-3-((S)-3-Fluoropyrrolidin-1-Yl)Chroman-4-Yl)-6-(Trifluoromethyl)-7H-Pyrrolo[2,3-D]Pyrimidin-4-Amine]	387 nM	62.14	
FC(F)(F)c1cc2c(N[C@H]3c4ccccc4OC[C@@H]3C3(F)CCOCC3)ncnc2[nH]1 [EP-0043236, N-[(3R,4R)-3-(4-Fluorotetrahydropyran-4-Yl)Chroman-4-Yl]-6-(Trifluoromethyl)-7H-Pyrrolo[2,3-D]Pyrimidin-4-Amine]	415 nM	59.18	
N#C[C@H]1CCN([C@H]2COc3ccccc3[C@@H]2Nc2ncnc3[nH]c(C(F)(F)F)cc23)C1 [EP-0043263, (S)-1-((3R,4S)-4-((6-(Trifluoromethyl)-7H-Pyrrolo[2,3-D]Pyrimidin-4-Yl)Amino)Chroman-3-Yl)Pyrrolidine-3-Carbonitrile]	97 nM	120.52	
N#C[C@@H]1CCN([C@H]2COc3ccccc3[C@@H]2Nc2ncnc3[nH]c(C(F)(F)F)cc23)C1 [EP-0043264, (R)-1-((3R,4S)-4-((6-(Trifluoromethyl)-7H-Pyrrolo[2,3-D]Pyrimidin-4-Yl)Amino)Chroman-3-Yl)Pyrrolidine-3-Carbonitrile]	129 nM	91.68	
N#C[C@H]1CCN([C@H]2COc3ccccc3[C@@H]2Nc2ncnc3[nH]c(C4CC4)cc23)C1 [EP-0043271, (S)-1-((3R,4S)-4-((6-Cyclopropyl-7H-Pyrrolo[2,3-D]Pyrimidin-4-Yl)Amino)Chroman-3-Yl)Pyrrolidine-3-Carbonitrile]		74.90	65 nM
CO[C@H]1CCCN([C@H]2COc3ccccc3[C@@H]2Nc2ncnc3[nH]c(C(F)(F)F)cc23)C1 [EP-0043439, N-((3R,4S)-3-((S)-3-Methoxypiperidin-1-Yl)Chroman-4-Yl)-6-(Trifluoromethyl)-7H-Pyrrolo[2,3-D]Pyrimidin-4-Amine]	448 nM	48.93	
FC(F)(F)c1cc2c(N[C@H]3c4ccccc4OC[C@@H]3N3CCCC3)ncnc2[nH]1 [EP-0043440, N-((3R,4S)-3-(Pyrrolidin-1-Yl)Chroman-4-Yl)-6-(Trifluoromethyl)-7H-Pyrrolo[2,3-D]Pyrimidin-4-Amine]	372 nM	60.76	
CO[C@@H]1CCN([C@H]2COc3cc(F)ccc3[C@@H]2Nc2ncnc3[nH]c(C(F)(F)F)cc23)C1 [EP-0043690, N-((3R,4S)-7-fluoro-3-((R)-3-methoxypyrrolidin-1-yl)chroman-4-yl)-6-(trifluoromethyl)-7H-pyrrolo[2,3-d]pyrimidin-4-amine]	140 nM	68.6	
C[C@@H]1CCN([C@H]2COc3ccccc3[C@@H]2Nc2ncnc3[nH]c(C(F)(F)F)cc23)C1 [EP-0043821, N-((3R,4S)-3-((R)-3-methylpyrrolidin-1-yl)chroman-4-yl)-6-(trifluoromethyl)-7H-pyrrolo[2,3-d]pyrimidin-4-amine]	30 nM	70.0	
C[C@@H]1CN([C@H]2COc3c(F)cccc3[C@@H]2Nc2ncnc3[nH]c(C(F)(F)F)cc23)CCO1 [EP-0043827, N-((3R,4S)-8-fluoro-3-((R)-2-methylmorpholino)chroman-4-yl)-6-(trifluoromethyl)-7H-pyrrolo[2,3-d]pyrimidin-4-amine]	230 nM	108.7	
C[C@@H]1CN([C@H]2COc3cc(F)ccc3[C@@H]2Nc2nccc3[nH]c(C(F)(F)F)cc23)CCO1 [EP-0043830, N-((3R,4S)-7-fluoro-3-((R)-2-methylmorpholino)chroman-4-yl)-2-(trifluoromethyl)-1H-pyrrolo[3,2-c]pyridin-4-amine]	50 nM	118.0	
FC(F)C1CN([C@H]2COc3ccccc3[C@@H]2Nc2ncnc3[nH]c(C(F)(F)F)cc23)C1 [EP-0043831, N-((3R,4S)-3-(3-(difluoromethyl)azetidin-1-yl)chroman-4-yl)-6-(trifluoromethyl)-7H-pyrrolo[2,3-d]pyrimidin-4-amine]	600 nM	41.7	
Fc1ccc2c(c1)OC[C@H](N1CCOC3(CC3)C1)[C@H]2Nc1ncnc2[nH]c(C(F)(F)F)cc12 [EP-0043834, N-((3R,4S)-7-fluoro-3-(4-oxa-7-azaspiro[2.5]octan-7-yl)chroman-4-yl)-6-(trifluoromethyl)-7H-pyrrolo[2,3-d]pyrimidin-4-amine]	560 nM	40.9	
Fc1ccc2c(c1)OC[C@H](N1CC[C@H](F)C1)[C@H]2Nc1ncnc2[nH]c(C(F)(F)F)cc12 [EP-0043839, N-((3R,4S)-7-fluoro-3-((S)-3-fluoropyrrolidin-1-yl)chroman-4-yl)-6-(trifluoromethyl)-7H-pyrrolo[2,3-d]pyrimidin-4-amine]	480 nM	41.3	
